For this assay, the target named is T1, hT1R2/T1R3 taste receptor (Homo sapiens, UniProt Q7RTX0+Q8TE23).
T1 sequence (Q8TE23 20-839): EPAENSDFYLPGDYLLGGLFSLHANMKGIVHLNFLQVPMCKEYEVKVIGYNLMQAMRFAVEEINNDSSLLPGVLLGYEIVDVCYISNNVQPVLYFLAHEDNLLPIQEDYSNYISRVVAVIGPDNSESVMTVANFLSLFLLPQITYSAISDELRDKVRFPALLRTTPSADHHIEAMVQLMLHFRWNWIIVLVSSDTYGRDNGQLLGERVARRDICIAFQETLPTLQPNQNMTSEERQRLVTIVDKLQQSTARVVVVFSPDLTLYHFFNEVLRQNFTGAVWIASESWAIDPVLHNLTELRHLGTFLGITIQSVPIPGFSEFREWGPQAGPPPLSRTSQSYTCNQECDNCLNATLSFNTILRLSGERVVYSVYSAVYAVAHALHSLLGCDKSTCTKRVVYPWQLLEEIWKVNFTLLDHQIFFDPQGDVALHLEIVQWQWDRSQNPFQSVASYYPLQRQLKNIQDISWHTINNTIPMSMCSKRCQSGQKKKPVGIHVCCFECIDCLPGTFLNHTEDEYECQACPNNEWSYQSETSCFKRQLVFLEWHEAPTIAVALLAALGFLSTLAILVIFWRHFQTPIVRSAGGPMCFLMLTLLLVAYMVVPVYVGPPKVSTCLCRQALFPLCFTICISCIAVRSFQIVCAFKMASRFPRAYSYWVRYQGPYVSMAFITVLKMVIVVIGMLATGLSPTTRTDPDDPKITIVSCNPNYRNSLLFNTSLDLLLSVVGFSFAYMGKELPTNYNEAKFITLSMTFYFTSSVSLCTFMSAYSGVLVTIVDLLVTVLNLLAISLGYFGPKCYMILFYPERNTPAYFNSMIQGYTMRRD
T1 sequence (Q7RTX0 21-852): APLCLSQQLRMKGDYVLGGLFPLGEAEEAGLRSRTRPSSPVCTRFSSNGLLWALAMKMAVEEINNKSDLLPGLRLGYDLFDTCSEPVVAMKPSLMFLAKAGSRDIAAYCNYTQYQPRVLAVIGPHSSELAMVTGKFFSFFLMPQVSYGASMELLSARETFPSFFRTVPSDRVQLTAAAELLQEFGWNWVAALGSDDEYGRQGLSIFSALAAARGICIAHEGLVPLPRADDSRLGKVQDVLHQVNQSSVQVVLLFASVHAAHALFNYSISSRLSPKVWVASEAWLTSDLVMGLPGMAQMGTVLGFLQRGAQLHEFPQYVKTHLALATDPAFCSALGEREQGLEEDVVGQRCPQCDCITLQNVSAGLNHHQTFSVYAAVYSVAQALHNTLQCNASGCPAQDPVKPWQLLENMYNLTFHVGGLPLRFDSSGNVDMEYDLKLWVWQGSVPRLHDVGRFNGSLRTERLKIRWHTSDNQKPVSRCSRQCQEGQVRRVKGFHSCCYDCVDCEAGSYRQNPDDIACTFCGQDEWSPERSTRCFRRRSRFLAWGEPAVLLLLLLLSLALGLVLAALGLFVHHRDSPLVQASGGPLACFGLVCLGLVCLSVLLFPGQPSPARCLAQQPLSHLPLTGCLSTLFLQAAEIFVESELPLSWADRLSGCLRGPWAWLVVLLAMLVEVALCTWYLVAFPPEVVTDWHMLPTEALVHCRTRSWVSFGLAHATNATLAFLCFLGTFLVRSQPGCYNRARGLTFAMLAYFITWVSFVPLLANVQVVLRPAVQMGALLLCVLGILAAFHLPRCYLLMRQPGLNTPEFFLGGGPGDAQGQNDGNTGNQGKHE
Briefly: agonist activity against the hT1R2/T1R3 taste receptor (sweet receptor based assay). In kind it is cell-based. The protocol:
Compounds described in this application show moderate to potent agonist effect on the sweet receptor based assay. Potencies (EC50 values, e.g. see Tables 1-3) for agonist activity were measured against the hT1R2/T1R3 taste receptor. FIG. 1 exemplifies the data generated during the screening to determine EC50 values.

Where [1] appears, read: agonist activity, hT1R2/T1R3, read-out: Sweet EC50.

pEC50: −log10 of the molar value. Like-named read-outs stand apart in the source and are kept apart here.

In the case of `CC(C)CNC(=O)C(C)(C)N1CCC(c2ccccc2C(=O)N(C)C)CC1` [Compound 105], the pEC50 under setting [1] was < 5.00.

With `CC(C)(C(=O)NC1CC1)N1CCN(c2cccc(F)c2F)CC1` [Compound 33], under setting [1], the pEC50 was 5.41. Same read-out and setting: under `CC(C)CNC(=O)C(C)(C)N1CCC2(CC1)OCc1ccccc12` [Compound 121] stands 5.25; under `COC(=O)c1c(F)cccc1N1CCN(C(C)(C)C(=O)NCC(C)C)CC1` [Compound 7, Methyl 2-fluoro-6-(4-(1-(isobutylamino)-2-methyl-1-oxopropan-2-yl)piperazin-1-yl)benzoate], 4.94.

As for `COCc1cccc(C2=CCN(C(C)(C)C(=O)NCC(C)C)CC2)c1F` [Compound 60], the pEC50 under setting [1] was 5.92.

With `Cc1cccc(N2CCN(C(C)C(=O)NC3CC3)CC2)c1C` (centres unmarked) [Compound 32], the pEC50 under setting [1] is < 5.00. Regarding `CC(C)CNC(=O)C(C)(C)N1CCC(C#N)(c2cccc(F)c2F)CC1` [Compound 79, 2-(4-cyano-4-(2,3-difluorophenyl)piperidin-1-yl)-N-isobutyl-2-methylpropanamide], the pEC50 was 5.80. As to `Cc1cccc(C)c1N1CCN(C(C)(C)C(=O)NCC(C)C)CC1` [Compound 40], the pEC50 under setting [1] was < 5.00. Same read-out and setting: then `Cc1cccc(N2CCN(C(C)(C)C(=O)NCCc3ccccc3)CC2)c1C` [Compound 27], with < 5.00. Same read-out and setting: under `CC(C)CNC(=O)C(C)(C)N1CC=C(c2ccccc2N(C)C)CC1` [Compound 67] stands < 5.00; under `COCC(C(=O)NCC(C)C)N1CCC(c2ccccc2)CC1` (centres unmarked) [Compound 113], 5.36; under `Cc1ccccc1C1=CCN(C(C)(C)C(=O)NCC(C)C)CC1` [Compound 58], 5.27. On the same count and under the same terms, then `CC(C)CNC(=O)C(C)(C)N1CCN(c2ccccc2C#N)CC1` [Compound 48], with < 5.00; and `CCCNC(=O)C(C)(C)N1CCN(c2cccc(C)c2C)CC1` [Compound 9], with 5.38; and `Cc1cccc(N2CCN(C(C)(C)C(=O)NCC3CC3)CC2)c1C` [Compound 14], with 5.30. As for `Cc1ncccc1C1=CCN(C(C)(C)C(=O)NCC(C)C)CC1` [Compound 76], under setting [1], the pEC50 was < 5.00. Still for that read-out and setting: under `CC(C)CNC(=O)C1(N2CCC(c3ccccc3)CC2)COC1` [Compound 112] stands 5.32; under `CC(C)CNC(=O)C(C)(C)N1CCC(c2cccc3c2OCO3)CC1` [Compound 104], 5.77. On the same count and under the same terms, under `CC(C)CNC(=O)C(C)(C)N1CCC(c2cccc(CO)c2F)CC1` [Compound 99] stands 5.33. Same read-out and setting: under `CC(C)CNC(=O)C(C)(C)N1CCN(c2cnccn2)CC1` [Compound 54] stands < 5.00. As to `CC(C)(C(=O)NC1CCC1)N1CCC(c2ccccc2)CC1` [Compound 83], the negative logarithm of the EC50 (pEC50) under setting [1] was < 5.00. Same read-out and setting: then `Cc1cccc(N2CCN(C(C)(C)C(=O)NCC(C)C)CC2)c1` [Compound 43], with < 5.00; and `CC(C)CNC(=O)C(C)(C)N1CCN(c2cc(F)ccc2F)CC1` [Compound 39], with < 5.00. The same measure, in the same setting: then `COCc1c(F)cccc1C1=CCN(C(C)(C)C(=O)NCC(C)C)CC1` [Compound 61], with 5.19; and `CC(C)CNC(=O)CN1CCC(c2ccccc2)CC1` [Compound 89], with 5.17; and `CC(C)CNC(=O)C(C)(C)N1CCN(c2ccccc2CO)CC1` [Compound 6], with < 5.00. Regarding `COCc1ccccc1N1CCN(C(C)(C)C(=O)NCC(C)C)CC1` [Compound 47], under setting [1], the pEC50 was 5.17. Still for that read-out and setting: then `Cc1cccc(N2CCN(C(C)(C)C(=O)NCC3CCCCCC3)CC2)c1C` [Compound 17], with < 5.00. Same read-out and setting: under `Cc1cccc(N2CCN(C(C)C(=O)NCC(C)C)CC2)c1C` (centres unmarked) [Compound 11] stands 5.85; under `COc1ccccc1N1CCN(C(C)(C)C(=O)NCC(C)C)CC1` [Compound 52], < 5.00.

As to `CCC(CC)NC(=O)C(C)(C)N1CCN(c2cccc(C)c2C)CC1` [Compound 20], the negative logarithm of the EC50 (pEC50) under setting [1] is 5.25. Same read-out and setting: then `Cc1ccc(C)c(N2CCN(C(C)(C)C(=O)NCC(C)C)CC2)c1` [Compound 38], with < 5.00; and `Cc1ncccc1C1CCN(C(C)(C)C(=O)NCC(C)C)CC1` [Compound 108], with < 5.00; and `COCc1cccc(N2CCN(C(C)(C)C(=O)NCC(C)C)CC2)c1` [Compound 45], with < 5.00. The same measure, in the same setting: then `CC(C)CNC(=O)C(C)(C)N1CCC(c2ccc(F)cc2)CC1` [Compound 97], with 5.21.

For `CC(C)CNC(=O)C(C)(C)N1CCC(c2cccc(CN(C)C)c2)CC1` [Compound 103], the pEC50 under setting [1] was < 5.00.

For `Cc1cccc(C2=CCN(C(C)(C)C(=O)NCC(C)C)CC2)n1` [Compound 77], under setting [1], the pEC50 was < 5.00. With `CC(C)[C@@H](C)NC(=O)C(C)(C)N1CCC(c2ccccc2)CC1` [Compound 86], the pEC50 under setting [1] is 5.36. On to `CC(C)CNC(=O)C(C)(C)N1CCN(c2cccc(F)c2)CC1` [Compound 44], for which the pEC50 under setting [1] was < 5.00.

For `COCc1cccc(N2CCN(C(C)(C)C(=O)NCC(C)C)CC2)c1F` [Compound 4, 2-(4-(2-fluoro-3-(methoxymethyl)phenyl)piperazin-1-yl)-N-isobutyl-2-methylpropanamide], the pEC50 under setting [1] is 5.68.

Take `Cc1cccc(N2CCN(C(C)(C)C(=O)NCC3CCCCC3)CC2)c1C` [Compound 16]: the pEC50 under setting [1] was < 5.00.

Turning to `CC(C)CNC(=O)C(C)(C)N1CCN(c2ccccn2)CC1` [Compound 53], the pEC50 under setting [1] was < 5.00.

With `CC(C)CNC(=O)C(C)(C)N1CCC(C#N)(c2ccccc2)CC1` [Compound 124], the pEC50 is 5.66. In the case of `CC(C)CNC(=O)C(C)(C)N1CCC(c2ccccc2N(C)C)CC1` [Compound 101], under setting [1], the pEC50 is < 5.00.

As for `COc1cccc(C2CCN(C(C)(C)C(=O)NCC(C)C)CC2)c1F` [Compound 100], the negative-log EC50 (pEC50) under setting [1] was 5.85. On the same count and under the same terms, under `COCC(C(=O)NCC(C)C)N1CCC(c2cccc(F)c2F)CC1` (centres unmarked) [Compound 114] stands 6.40. On the same count and under the same terms, under `CCC(CC)CNC(=O)C(C)(C)N1CCN(c2cccc(C)c2C)CC1` [Compound 21] stands < 5.00; under `CCCNC(=O)C(C)(C)N1CCC(c2ccccc2)CC1` [Compound 85], 5.26. As for `COCc1cccc(C2=CCN(C(C)(C)C(=O)NCC(C)C)CC2)c1` [Compound 63], the pEC50 under setting [1] was < 5.00.

On to `CC(C)CNC(=O)C(C)(C)N1CC=C(c2ccccc2)CC1` [Compound 56], for which, under setting [1], the pEC50 was 5.48. Still for that read-out and setting: under `Cc1cccc(N2CCN(C(C)(C)C(=O)NCC(C)(C)O)CC2)c1C` [Compound 25] stands < 5.00.

As to `CC(C)CNC(=O)C(C)(C)N1CCN(c2cccc(CO)c2F)CC1` [Compound 35], the negative-log EC50 (pEC50) under setting [1] was < 5.00. The same measure, in the same setting: under `COCc1cccc(C2CCN(C(C)(C)C(=O)NCC(C)C)CC2)c1F` [Compound 95] stands 6.30; under `COC(=O)c1ccccc1N1CCN(C(C)(C)C(=O)NCC(C)C)CC1` [Compound 49], < 5.00. For the molecule `COCCNC(=O)C(C)(C)N1CCC(C#N)(c2cccc(F)c2F)CC1` [Compound 125], the pEC50 is < 5.00. Turning to `CC(C)CNC(=O)C(C)(C)N1CC=C(c2cccc(F)c2)CC1` [Compound 62], under setting [1], the pEC50 is 5.52. `CC(C)(C)NC(=O)C(C)(C)N1CCC(C#N)(c2cccc(F)c2F)CC1` [Compound 126] gave a negative logarithm of the EC50 (pEC50) of 5.70. `Cc1cccc(C2CCN(C(C)(C)C(=O)NCC(C)C)CC2)c1F` [Compound 98]: the negative logarithm of the EC50 (pEC50) under setting [1] was 6.05. Regarding `CCNC(=O)C(C)(C)N1CCN(c2cccc(C)c2C)CC1` [Compound 8], the pEC50 under setting [1] is < 5.00.

Values taken from US20250280861A1, “SWEETENER COMPOSITIONS” (Firmenich Incorporated, priority 2022, published 2025).
